Reference: patent US12653827B2, “Methods of treating indolent systemic mastocytosis” (Telios Pharma Inc., priority 2024, dated 2026)

Tests used:
basophils = assay: Comparison of BTK inhibitors by BAT (CD63 and CD203c); format: cell-based, human; conditions: concentration of 1 μM; 2 hours; blood from a healthy donor
Method: The BAT assay using the Flow Cast Basophil Activation Kit (Buhlmann Diagnostics; Catalog #B-CCR-STCON) was then conducted following manufacturer instructions by (1) stimulating the blood with anti-FcεR stimulation control in stimulation buffer with IL-3 and staining cells for CCR3 and CD63 for 15 minutes at 37° C., (2) lysing red blood cells and fixing cells with Lysing Reagent at room temperature for 10 minutes, (3) washing cells with Wash Buffer, and (4) acquiring data on a flow cytometer. Activated basophils were defined as CCR3+, low side scatter and CD63+. Percent of activated basophils was calculated as number of activated basophils over the total number of basophils. A four-parameter logistic regression was applied to determine the EC50 and EC90.
Blood samples were gently rocked at room temperature for 2 hours. […] Activated basophils were also defined as CCR3+, low side scatter and CD203c+.

mast cells = assay: Phosphorylation and degranulation markers in antigen-stimulated mast cells grown with chronic SCF (FIG. 21); format: cell-based; conditions: 1 μM, antigen 15 minutes
Method: Histamine release, CD63 expression, CD203c expression, pBTK (Y223) levels, pP38 (T180/Y182) levels, pPLCg1 (S1248) levels, pERK (T202/Y204) levels, and pS6 (S235/236) levels are shown. Mast cells were grown with continuous (chronic) exposure to SCF and then stimulated with antigen (Ag) for 15 minutes, leading to phosphorylation of multiple kinases, including pBTK, pPLCγ1, pP38, pERK, and pS6 ribosome. This stimulation increases degranulation markers, including CD63, CD203c, and histamine release.

[1] = ISM patients, cited from earlier work
[2] = cited from earlier work

For `CC#CC(=O)N1CCC[C@H]1c1nc(-c2ccc(C(=O)Nc3ccccn3)cc2)c2c(N)nccn12` [acalabrutinib, (S)-4-(8-amino-3-(1-(but-2-ynoyl)pyrrolidin-2-yl)imidazo[1,5-a]pyrazin-1-yl)-N-(pyridin-2-yl)benzamide, reference compound], which “effect on basophil activation (CD63+, CD203c+)” value (basophils) is on record?
The value was “no effect on basophil activation”.

Which “phosphorylation and degranulation (activation)” value (mast cells) does the source give for `Cn1cc(-c2cc3c(N4CCN(c5ncc([C@@](C)(N)c6ccc(F)cc6)cn5)CC4)ncnn3c2)cn1` [avapritinib] here?
Its value is “only partially inhibits activation”.

And the “reduction of total symptom score compared to the placebo” value ([1]; 25 mg QD, Week 24, ISM-SAF survey)?
Its value is 5.7 points.

And the “adverse reactions leading to dose interruptions” value ([1]; 25 mg QD)?
The value was 5%.

And the “treated subjects who failed to achieve a mean symptom score reduction of 30%” value ([1]; first 6 months of treatment)?
The value was “approximately half”.

And the “subjects who achieved a 50% symptom score reduction” value ([1]; within the first 6 months of treatment)?
Its value is “about a third”.

Which results are given for `Cc1nc(Nc2ncc(C(=O)Nc3c(C)cccc3Cl)s2)cc(N2CCN(CCO)CC2)n1` [dasatinib]?
subjects who discontinued treatment due to toxicity ([2]; overall, AdvSM and ISM subjects): 34%; pleural effusion, grade 3 adverse event ([2]; patients overall): 10%
